pIC50: −log10 of the molar value. “And” between values parts separate entries of the source, which are not always exact repeats. Identical values can stand only once. “Also recorded” adds a separate entry of the source.
Columns and labels:
Polθ-pol = molecular target: T1, Polθ-pol (Homo sapiens, UniProt O75417); experiment: Cy5 fluorescence Polθ-pol DNA synthesis (strand displacement) IC50 assay; type: biochemical; details: for pIC50: Polθ-pol DNA synthesis, Cy5 fluorescence
T1 construct: purified recombinant human Polθ-pol (comprising amino acid residues 1792–2590); made in house
T1 sequence (O75417 1792-2590): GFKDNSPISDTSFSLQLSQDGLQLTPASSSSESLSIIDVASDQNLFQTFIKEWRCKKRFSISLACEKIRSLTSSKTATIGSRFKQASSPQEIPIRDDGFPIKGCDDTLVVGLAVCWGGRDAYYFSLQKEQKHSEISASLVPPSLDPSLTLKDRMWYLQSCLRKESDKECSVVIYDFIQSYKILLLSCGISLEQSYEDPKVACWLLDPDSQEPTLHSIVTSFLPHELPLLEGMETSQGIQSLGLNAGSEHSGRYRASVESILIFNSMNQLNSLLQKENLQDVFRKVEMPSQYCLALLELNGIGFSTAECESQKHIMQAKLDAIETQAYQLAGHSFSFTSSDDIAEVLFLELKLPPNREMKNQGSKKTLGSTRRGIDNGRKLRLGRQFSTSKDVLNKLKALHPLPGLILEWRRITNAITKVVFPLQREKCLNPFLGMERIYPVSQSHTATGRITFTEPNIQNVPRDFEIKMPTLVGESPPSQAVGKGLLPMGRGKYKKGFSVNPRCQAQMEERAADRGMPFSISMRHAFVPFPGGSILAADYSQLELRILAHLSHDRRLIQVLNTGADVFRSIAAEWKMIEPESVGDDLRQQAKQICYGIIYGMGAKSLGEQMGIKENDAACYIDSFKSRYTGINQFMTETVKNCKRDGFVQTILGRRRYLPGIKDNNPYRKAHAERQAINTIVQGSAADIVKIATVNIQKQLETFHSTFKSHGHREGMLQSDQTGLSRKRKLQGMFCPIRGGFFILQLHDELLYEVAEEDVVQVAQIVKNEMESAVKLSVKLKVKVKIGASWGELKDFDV
Summary of the method: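 Recombinant human Polθ-pol (aa 1792–2590, 5 nM) extends 60 nM Cy5/quencher primer-template with 50 uM dNTPs in 25 mM Tris pH 7.8, 10 mM MgCl2, 2.5% DMSO at 37 °C. After 18 min, stopped with 20 mM EDTA; Cy5 fluorescence read, 7-point series in triplicate, inhibition from the mean.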

DLD1 BRCA2 -/- cells = experiment: Clonogenic assay; type: cell-based; details: for Average number of colonies counted / Normalized colonies (0 micro M = 100): per experiment; for selective killing / synthetic lethality in BRCA2-null DLD1 cells: colony survival, versus BRCA2-WT
Summary of the method: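 Cells seeded at low density (300–1000 per well, by plate size and genotype), medium changed every 2 days, colonies grown 10–12 days. Fixed in water:ethanol:acetic acid, stained with 0.5% crystal violet, then counted; IC50 from ≥3 independent experiments, mean ± SEM.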

DLD1 Parental cells = experiment: Clonogenic assay; type: cell-based; details: for Normalized colonies (0 micro M = 100): per experiment
Description: Cells were plated on six or twelve or twenty-four well plates. In six well plate, 1000 cells/ well of BRCA2 -/-, BRCA1 -/-, PALB2 mut and 500 cells/ well of wildtype pair was plated; In twelve well plate, 600 cells/ well of BRCA2 -/-, BRCA1 -/-, PALB2 mut and 400 cells/ well of wildtype pair was plated; In twenty-four well plate, 500 cells/ well of BRCA2 -/-, BRCA1 -/-, PALB2 mut and 300 cells/ well of wildtype pair was plated. For MEFs, 300 cells per well in six-well plate were seeded. The medium was replaced every 2 days until the colonies were ready for staining in 10–12 days. For staining: Medium was removed from plates, and cells were rinsed with PBS. Fixation was carried out with—Water: Ethanol: Acetic acid (5:4:1) for 30 min followed by staining of colonies with 0.5% crystal violet in Water: Ethanol (3:2) for 2 h at room temperature. The plates were rinsed with water and left for drying overnight at room temperature. Colonies were then counted and IC50 was calculated using results from 3 or more independent experiments. Response curves are shown as mean colony formation +/- S.E.M.

LogP = type: physicochemical; details: method not stated
[1] = 10 μM compound, 5 nM PolQ, 60 nM DNA, 18 min

## CN(C(=O)Oc1c(N2CCN(CCO)C2=O)cc(C(F)(F)F)cc1C(F)(F)F)c1ccc(F)cc1 [RTx-161]
Polθ-pol
  pIC50: 8.39 and 8.22 to 8.40
DLD1 BRCA2 -/- cells; Homo sapiens, DLD-1, read-out: IC50 clonogenic survival
  pIC50: ~6.00
DLD1 BRCA2 -/- cells; RTX-161 0.185 micro M
  Normalized colonies, pooled Average of 3 experiments: 84.318%
  Average number of colonies counted: 67.3333 and 120 and 63.3333
  Normalized colonies (0 micro M = 100): 74.5387% and 90.4523% and 87.963%
DLD1 BRCA2 -/- cells; RTX-161 0.555 micro M
  Normalized colonies, pooled Average of 3 experiments: 72.4221%
  Average number of colonies counted: 58.6667 and 97.6667 and 56.6667
  Normalized colonies (0 micro M = 100): 64.9446% and 73.6181% and 78.7037%
DLD1 BRCA2 -/- cells; RTX-161 1.67 micro M
  Normalized colonies, pooled Average of 3 experiments: 40.9897%
  Average number of colonies counted: 28.3333 and 49.6667 and 39
  Normalized colonies (0 micro M = 100): 31.3653% and 37.4372% and 54.1667%
DLD1 BRCA2 -/- cells; RTX-161 5 micro M
  Normalized colonies, pooled Average of 3 experiments: 19.5991%
  Average number of colonies counted: 11.6667 and 20.3333 and 22
DLD1 BRCA2 -/- cells; RTX-161 15 micro M
  Normalized colonies, pooled Average of 3 experiments: 11.8019%
DLD1 BRCA2 -/- cells
  selective killing / synthetic lethality in BRCA2-null DLD1 cells: selective killing
DLD1 Parental cells; DLD1, colony survival
  effect in BRCA2-WT cells: little to no effect
DLD1 Parental cells; RTX-161 0.185 micro M
  Normalized colonies, pooled Average of 3 experiments: 97.5686%
  Normalized colonies (0 micro M = 100): 97.878% and 98.6301% and 96.1977%
DLD1 Parental cells; RTX-161 0.555 micro M
  Normalized colonies, pooled Average of 3 experiments: 95.8582%
  Normalized colonies (0 micro M = 100): 95.8175% and 96.5517% and 95.2055%
DLD1 Parental cells; RTX-161 1.67 micro M
  Normalized colonies, pooled Average of 3 experiments: 94.2875%
  Normalized colonies (0 micro M = 100): 93.5361% and 95.4907% and 93.8356%
DLD1 Parental cells; RTX-161 5 micro M
  Normalized colonies, pooled Average of 3 experiments: 93.9179%
  Normalized colonies (0 micro M = 100): 93.1559% and 96.817% and 91.7808%
DLD1 Parental cells; RTX-161 15 micro M
  Normalized colonies, pooled Average of 3 experiments: 93.9599%
  Normalized colonies (0 micro M = 100): 90.8745% and 94.4297% and 96.5753%
LogP
  logP: 3.6

## CN(C(=O)Oc1ccc(C(F)(F)F)cc1C(F)(F)F)c1ccc(F)cc1 [MC160385]
Polθ-pol
  improved potency relative to hit MC28003: ~ 18 fold
  pIC50: 8.05
Polθ-pol; [1]
  raw signal, Positive Control, Average: 21.00
  raw signal, Positive Control, Trial 1-3: 20.96 and 21.46 and 20.58
Polθ-pol; MC160385 0.0014 μM, 5 nM PolQ
  Cy5 fluorescence, Average of Trial 1-3: 363.79
Polθ-pol; MC160385 0.0041 μM
  activity at 0.0041 µM: 77.8%
  inhibition at 0.0041 µM: 22.2%
Polθ-pol; MC160385 0.0041 μM, 5 nM PolQ
  Cy5 fluorescence, Average of Trial 1-3: 309.29
Polθ-pol; MC160385 0.0123 μM
  activity at 0.0123 µM: 38.7%
  inhibition at 0.0123 µM: 61.3%
Polθ-pol; MC160385 0.0123 μM, 5 nM PolQ
  Cy5 fluorescence, Average of Trial 1-3: 203.69
Polθ-pol; MC160385 0.0370 μM
  activity at 0.037 µM: 3.23%
  inhibition at 0.037 µM: 96.8%
Polθ-pol; MC160385 0.0370 μM, 5 nM PolQ
  Cy5 fluorescence, Average of Trial 1-3: 109.39
Polθ-pol; MC160385 0.1111 μM
  activity at 0.1111 µM: -2.07%
  inhibition at 0.1111 µM: 102%
Polθ-pol; MC160385 0.1111 μM, 5 nM PolQ
  Cy5 fluorescence, Average of Trial 1-3: 94.78
Polθ-pol; MC160385 0.3333 μM
  activity at 0.3333 µM: -2.9%
  inhibition at 0.3333 µM: 103%
Polθ-pol; MC160385 0.3333 μM, 5 nM PolQ
  Cy5 fluorescence, Average of Trial 1-3: 92.26
Polθ-pol; MC160385 1.0000 μM
  activity at 1 µM: -1.58%
  inhibition at 1 µM: 102%
Polθ-pol; MC160385 1.0000 μM, 5 nM PolQ
  Cy5 fluorescence, Average of Trial 1-3: 95.83
Polθ-pol; MC160385 2 μM, sheet Fig. 1 b
  Positive Control fluorescence, Average: 100.15
Polθ-pol; MC160385 10 μM, 5 nM PolQ, 18 min, sheet Fig. 1 g
  Positive Control fluorescence, Average: 33.58
DLD1 BRCA2 -/- cells
  selective killing / synthetic lethality in BRCA2-null DLD1 cells: failed to show selective killing; also recorded: failure
LogP
  logP: ~5.3

Source: PMC10997755, “Discovery of a small-molecule inhibitor that traps Polθ on DNA and synergizes with PARP inhibitors” (Nature Communications, 2024)
